Assay results from ChEMBL document CHEMBL3232817, “Structural elucidation and synthesis of vialinin C, a new inhibitor of TNF-α production” (Bioorg Med Chem, 2014).

Test system: RBL-2H3
Assay: Inhibition of TNF-alpha production in rat RBL2H3 cells
Format: functional, cell-based

| Structure (SMILES) | IC50 |
| --- | --- |
| O=C(Oc1c(OC(=O)c2ccc(O)cc2)c(-c2ccc(O)cc2)c(O)c(O)c1-c1ccc(O)cc1)c1ccc(O)cc1 | 3.5 nM |
| O=C(Cc1ccccc1)Oc1c(OC(=O)Cc2ccccc2)c(-c2ccc(O)cc2)c(O)c(O)c1-c1ccc(O)cc1 [VIALININ A] | 0.25 nM |
| O=C(Oc1c(-c2ccc(O)cc2)c(O)c2oc3cc(O)c(O)cc3c2c1OC(=O)c1ccc(O)cc1)c1ccc(O)cc1 | 890 nM |
| O=C(Cc1ccccc1)Oc1c(-c2ccc(O)cc2)c(O)c2oc3cc(O)c(O)cc3c2c1OC(=O)Cc1ccccc1 [VIALININ B] | 0.05 nM |
